According to PubChem BioAssay (NCI):
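Five concentrations, 48 hours, 96-well plates. TGI is the concentration that stops growth completely.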

What was measured:
Test in all cases: growth of human tumour cells (NCI), 48 h
[1] = test system: MCF7 breast
[2] = test system: SK-MEL-5 melanoma
[3] = test system: NCI-H226 lung
[4] = test system: SN12C renal
[5] = test system: ACHN renal
[6] = test system: SF-295 CNS
[7] = test system: SR leukemia
[8] = test system: UACC-62 melanoma
[9] = test system: HCT-15 colon
[10] = test system: BT-549 breast
[11] = test system: A549 NSCLC
[12] = test system: MDA-MB-231 breast
[13] = test system: SK-MEL-2 melanoma
[14] = test system: HOP-62 NSCLC
[15] = test system: CAKI-1 renal
[16] = test system: SNB-75 CNS
[17] = test system: DU-145 prostate
[18] = test system: M14 melanoma
[19] = test system: A498 renal
[20] = test system: SW-620 colon
[21] = test system: NCI/ADR-RES ovarian
[22] = test system: HS 578T breast
[23] = test system: T-47D breast
[24] = test system: SK-MEL-28 melanoma
[25] = test system: HCT-116 colon
[26] = test system: IGROV1 ovarian
[27] = test system: UO-31 renal
[28] = test system: MOLT-4 leukemia
[29] = test system: OVCAR-8 ovarian
[30] = test system: SNB-19 CNS
[31] = test system: PC-3 prostate
[32] = test system: EKVX NSCLC
[33] = test system: SK-OV-3 ovarian
[34] = test system: SF-539 CNS
[35] = test system: HCC-2998 colon
[36] = test system: MDA-N
[37] = test system: K-562 leukemia
[38] = test system: UACC-257 melanoma
[39] = test system: NCI-H23 lung
[40] = test system: OVCAR-4 ovarian
[41] = test system: OVCAR-3 ovarian
[42] = test system: KM12 colon
[43] = test system: COLO 205 colon
[44] = test system: MALME-3M melanoma
[45] = test system: NCI-H460 lung
[46] = test system: 786-0 renal
[47] = test system: U251 CNS
[48] = test system: HOP-92 NSCLC
[49] = test system: CCRF-CEM leukemia
[50] = test system: TK-10 renal
[51] = test system: LOX IMVI melanoma
[52] = test system: MDA-MB-435
[53] = test system: OVCAR-5 ovarian
[54] = test system: HT29 colon

With `O=C(/C=C/c1ccc2c(c1)OCO2)NCc1ccco1` as the compound, how does the TGI [1] read?
Its TGI is greater than 100 µM.

And the TGI [2]?
The TGI was greater than 100 µM.

What about the TGI [3] of the same compound?
The TGI was greater than 100 µM.

And the TGI [4]?
The TGI was greater than 100 µM.

And the TGI [5]?
Its TGI is greater than 100 µM.

What about the TGI [6] of the same compound?
Its TGI is greater than 100 µM.

And the TGI [7]?
The TGI was greater than 100 µM.

What about the TGI [8] of the same compound?
Its TGI is greater than 100 µM.

What about the TGI [9] of the same compound?
The TGI was greater than 100 µM.

And the TGI [10]?
The TGI was greater than 100 µM.

What about the TGI [11] of the same compound?
Its TGI is greater than 100 µM.

What about the TGI [12] of the same compound?
The TGI was greater than 100 µM.

And the TGI [13]?
Its TGI is greater than 100 µM.

And the TGI [14]?
The TGI was greater than 100 µM.

And the TGI [15]?
Its TGI is greater than 100 µM.

What about the TGI [16] of the same compound?
Its TGI is greater than 100 µM.

And the TGI [17]?
The TGI was greater than 100 µM.

What about the TGI [18] of the same compound?
The TGI was greater than 100 µM.

What about the TGI [19] of the same compound?
Its TGI is greater than 100 µM.

What about the TGI [20] of the same compound?
Its TGI is greater than 100 µM.

What about the TGI [21] of the same compound?
Its TGI is greater than 100 µM.

What about the TGI [22] of the same compound?
The TGI was greater than 100 µM.

What about the TGI [23] of the same compound?
Its TGI is 80.9 µM.

And the TGI [24]?
The TGI was greater than 100 µM.

What about the TGI [25] of the same compound?
Its TGI is greater than 100 µM.

And the TGI [26]?
Its TGI is greater than 100 µM.

And the TGI [27]?
Its TGI is greater than 100 µM.

And the TGI [28]?
The TGI was greater than 100 µM.

And the TGI [29]?
The TGI was greater than 100 µM.

And the TGI [30]?
The TGI was greater than 100 µM.

And the TGI [31]?
Its TGI is greater than 100 µM.

What about the TGI [32] of the same compound?
Its TGI is greater than 100 µM.

And the TGI [33]?
The TGI was greater than 100 µM.

What about the TGI [34] of the same compound?
The TGI was greater than 100 µM.

And the TGI [35]?
The TGI was greater than 100 µM.

What about the TGI [36] of the same compound?
The TGI was greater than 100 µM.

What about the TGI [37] of the same compound?
The TGI was greater than 100 µM.

And the TGI [38]?
Its TGI is greater than 100 µM.

What about the TGI [39] of the same compound?
The TGI was greater than 100 µM.

What about the TGI [40] of the same compound?
Its TGI is greater than 100 µM.

And the TGI [41]?
Its TGI is greater than 100 µM.

And the TGI [42]?
The TGI was greater than 100 µM.

What about the TGI [43] of the same compound?
Its TGI is greater than 100 µM.

What about the TGI [44] of the same compound?
Its TGI is greater than 100 µM.

What about the TGI [45] of the same compound?
The TGI was greater than 100 µM.

And the TGI [46]?
Its TGI is greater than 100 µM.

And the TGI [47]?
The TGI was greater than 100 µM.

What about the TGI [48] of the same compound?
Its TGI is greater than 100 µM.

And the TGI [49]?
Its TGI is greater than 100 µM.

And the TGI [50]?
Its TGI is greater than 100 µM.

And the TGI [51]?
The TGI was greater than 100 µM.

And the TGI [52]?
Its TGI is greater than 100 µM.

What about the TGI [53] of the same compound?
The TGI was greater than 100 µM.

What about the TGI [54] of the same compound?
The TGI was greater than 100 µM.
